Key:
Histamine H1 receptor = Histamine H1 receptor (Homo sapiens, UniProt P35367); experiment: (§1) Cross screening panel
[1] = biological target: Muscarinic acetylcholine receptor M1 (Homo sapiens, UniProt P11229); experiment: as §1
[2] = biological target: Sodium-dependent serotonin transporter (Homo sapiens, UniProt P31645); experiment: as §1
[3] = biological target: Sodium channel protein type 5 subunit alpha (Homo sapiens, UniProt Q14524); experiment: as §1
[4] = biological target: Voltage-gated inwardly rectifying potassium channel KCNH2 (Homo sapiens, UniProt Q12809); experiment: as §1
Substance-P receptor = Substance-P receptor (Homo sapiens, UniProt P25103); experiment: as §1
Adenosine receptor A2a = Adenosine receptor A2a (Homo sapiens, UniProt P29274); experiment: as §1
[5] = biological target: Potassium voltage-gated channel subfamily A member 5 (Homo sapiens, UniProt P22460); experiment: as §1
[6] = biological target: 5-hydroxytryptamine receptor 1B (Homo sapiens, UniProt P28222); experiment: as §1
5-hydroxytryptamine receptor 1B, sequence (P28222 whole entry): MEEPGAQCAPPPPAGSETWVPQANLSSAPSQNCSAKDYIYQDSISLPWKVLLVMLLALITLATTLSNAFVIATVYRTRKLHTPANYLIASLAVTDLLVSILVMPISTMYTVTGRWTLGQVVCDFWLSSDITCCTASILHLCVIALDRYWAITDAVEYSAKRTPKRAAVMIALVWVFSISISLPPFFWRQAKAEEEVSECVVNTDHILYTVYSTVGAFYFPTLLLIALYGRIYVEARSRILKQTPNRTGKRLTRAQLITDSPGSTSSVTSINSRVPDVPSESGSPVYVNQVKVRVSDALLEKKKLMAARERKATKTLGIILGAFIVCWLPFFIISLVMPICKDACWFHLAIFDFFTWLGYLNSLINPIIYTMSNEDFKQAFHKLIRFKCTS

[7] = biological target: Glutamate receptor ionotropic, NMDA 2B (Homo sapiens, UniProt Q13224); experiment: as §1
[8] = biological target: Kappa-type opioid receptor (Homo sapiens, UniProt P41145); experiment: as §1
Kappa-type opioid receptor, sequence (P41145 whole entry): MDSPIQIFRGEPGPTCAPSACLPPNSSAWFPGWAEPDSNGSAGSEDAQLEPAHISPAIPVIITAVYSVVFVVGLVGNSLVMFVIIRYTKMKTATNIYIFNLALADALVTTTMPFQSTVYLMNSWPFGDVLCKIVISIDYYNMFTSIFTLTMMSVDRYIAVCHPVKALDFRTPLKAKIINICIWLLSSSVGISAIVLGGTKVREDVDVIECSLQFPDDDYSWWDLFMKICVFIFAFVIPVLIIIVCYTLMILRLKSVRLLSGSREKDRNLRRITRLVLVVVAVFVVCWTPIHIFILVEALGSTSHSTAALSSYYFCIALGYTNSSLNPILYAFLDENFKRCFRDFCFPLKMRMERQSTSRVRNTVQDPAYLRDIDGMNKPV

[9] = biological target: cGMP-inhibited 3',5'-cyclic phosphodiesterase 3A (Homo sapiens, UniProt Q14432); experiment: as §1
[10] = biological target: Voltage-dependent L-type calcium channel subunit alpha-1C (Homo sapiens, UniProt Q13936); experiment: as §1
Acetylcholinesterase = Acetylcholinesterase (Homo sapiens, UniProt P22303); experiment: as §1
D(2) dopamine receptor = D(2) dopamine receptor (Homo sapiens, UniProt P14416); experiment: as §1
D(2) dopamine receptor, sequence (P14416 whole entry): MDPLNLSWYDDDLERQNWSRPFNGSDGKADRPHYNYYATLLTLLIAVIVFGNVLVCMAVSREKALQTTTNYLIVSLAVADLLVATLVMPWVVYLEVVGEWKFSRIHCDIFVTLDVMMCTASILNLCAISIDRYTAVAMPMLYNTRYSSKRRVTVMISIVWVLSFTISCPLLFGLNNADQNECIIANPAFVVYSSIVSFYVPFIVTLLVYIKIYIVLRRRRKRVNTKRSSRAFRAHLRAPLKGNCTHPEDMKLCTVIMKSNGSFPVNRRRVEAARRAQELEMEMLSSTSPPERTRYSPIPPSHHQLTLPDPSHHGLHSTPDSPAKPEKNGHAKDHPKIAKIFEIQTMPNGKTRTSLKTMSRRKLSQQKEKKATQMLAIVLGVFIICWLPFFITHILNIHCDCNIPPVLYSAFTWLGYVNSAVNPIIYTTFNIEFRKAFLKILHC

[11] = biological target: Alpha-2C adrenergic receptor (Homo sapiens, UniProt P18825); experiment: as §1
Alpha-2C adrenergic receptor, sequence (P18825 whole entry): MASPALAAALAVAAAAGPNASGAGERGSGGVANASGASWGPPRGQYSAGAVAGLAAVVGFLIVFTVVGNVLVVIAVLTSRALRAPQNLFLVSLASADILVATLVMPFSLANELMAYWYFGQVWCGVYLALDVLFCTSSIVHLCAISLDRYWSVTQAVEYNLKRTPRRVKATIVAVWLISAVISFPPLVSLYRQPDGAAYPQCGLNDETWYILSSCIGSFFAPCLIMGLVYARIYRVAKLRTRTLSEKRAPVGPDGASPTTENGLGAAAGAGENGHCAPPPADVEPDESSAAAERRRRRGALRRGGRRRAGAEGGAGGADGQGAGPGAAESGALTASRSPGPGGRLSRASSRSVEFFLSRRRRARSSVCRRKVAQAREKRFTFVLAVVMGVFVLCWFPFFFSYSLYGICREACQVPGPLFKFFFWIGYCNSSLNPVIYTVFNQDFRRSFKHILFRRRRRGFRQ

D(1A) dopamine receptor = D(1A) dopamine receptor (Homo sapiens, UniProt P21728); experiment: as §1
[12] = biological target: Prostaglandin G/H synthase 2 (Homo sapiens, UniProt P35354); experiment: as §1
[13] = biological target: Sodium-dependent noradrenaline transporter (Homo sapiens, UniProt P23975); experiment: as §1
[14] = biological target: Beta-2 adrenergic receptor (Homo sapiens, UniProt P07550); experiment: as §1
Beta-2 adrenergic receptor, sequence (P07550 whole entry): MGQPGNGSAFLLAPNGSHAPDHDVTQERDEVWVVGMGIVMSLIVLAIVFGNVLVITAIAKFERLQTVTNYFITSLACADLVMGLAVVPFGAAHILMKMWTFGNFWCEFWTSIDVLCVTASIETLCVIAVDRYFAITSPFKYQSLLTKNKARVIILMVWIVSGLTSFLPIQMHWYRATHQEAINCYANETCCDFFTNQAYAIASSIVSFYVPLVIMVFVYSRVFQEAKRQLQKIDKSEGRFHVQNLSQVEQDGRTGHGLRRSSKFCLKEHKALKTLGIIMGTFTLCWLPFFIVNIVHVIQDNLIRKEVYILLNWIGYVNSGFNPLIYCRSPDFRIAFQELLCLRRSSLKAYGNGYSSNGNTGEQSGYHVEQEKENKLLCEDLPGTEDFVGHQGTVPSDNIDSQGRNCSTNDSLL

[15] = biological target: Muscarinic acetylcholine receptor M2 (Homo sapiens, UniProt P08172); experiment: as §1
Muscarinic acetylcholine receptor M2, sequence (P08172 whole entry): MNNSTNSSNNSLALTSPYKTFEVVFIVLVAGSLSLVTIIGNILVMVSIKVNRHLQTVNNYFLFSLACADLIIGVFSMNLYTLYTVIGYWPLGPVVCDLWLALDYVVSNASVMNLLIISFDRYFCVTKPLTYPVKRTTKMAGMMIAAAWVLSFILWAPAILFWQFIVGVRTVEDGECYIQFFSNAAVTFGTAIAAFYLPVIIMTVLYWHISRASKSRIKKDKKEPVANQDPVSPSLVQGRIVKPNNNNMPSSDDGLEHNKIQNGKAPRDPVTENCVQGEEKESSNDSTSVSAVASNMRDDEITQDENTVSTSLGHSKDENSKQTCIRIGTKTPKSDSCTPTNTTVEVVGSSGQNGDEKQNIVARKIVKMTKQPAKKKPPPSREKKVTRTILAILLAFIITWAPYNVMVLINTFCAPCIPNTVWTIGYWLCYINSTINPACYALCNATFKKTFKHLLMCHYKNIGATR

[16] = biological target: Solute carrier organic anion transporter family member 1B1 (Homo sapiens, UniProt Q9Y6L6); experiment: as §1
[17] = biological target: 5-hydroxytryptamine receptor 2C (Homo sapiens, UniProt P28335); experiment: as §1
5-hydroxytryptamine receptor 2C, sequence (P28335 whole entry): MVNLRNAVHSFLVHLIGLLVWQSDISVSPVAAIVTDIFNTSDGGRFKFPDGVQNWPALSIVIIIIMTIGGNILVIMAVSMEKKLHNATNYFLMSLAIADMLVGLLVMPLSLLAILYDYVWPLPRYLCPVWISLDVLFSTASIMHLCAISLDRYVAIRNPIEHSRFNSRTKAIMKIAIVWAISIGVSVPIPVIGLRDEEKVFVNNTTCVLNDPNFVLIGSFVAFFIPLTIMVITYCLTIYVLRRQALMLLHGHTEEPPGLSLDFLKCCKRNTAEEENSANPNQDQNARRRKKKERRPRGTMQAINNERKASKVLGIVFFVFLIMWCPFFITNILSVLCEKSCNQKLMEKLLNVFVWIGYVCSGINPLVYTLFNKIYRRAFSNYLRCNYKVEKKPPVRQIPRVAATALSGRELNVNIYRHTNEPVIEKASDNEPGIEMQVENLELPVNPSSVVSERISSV

Vasopressin V1a receptor = Vasopressin V1a receptor (Homo sapiens, UniProt P37288); experiment: as §1
Cytochrome P450 3A4 = Cytochrome P450 3A4 (Homo sapiens, UniProt P08684); experiment: as §1
Cytochrome P450 3A4, sequence (P08684 whole entry): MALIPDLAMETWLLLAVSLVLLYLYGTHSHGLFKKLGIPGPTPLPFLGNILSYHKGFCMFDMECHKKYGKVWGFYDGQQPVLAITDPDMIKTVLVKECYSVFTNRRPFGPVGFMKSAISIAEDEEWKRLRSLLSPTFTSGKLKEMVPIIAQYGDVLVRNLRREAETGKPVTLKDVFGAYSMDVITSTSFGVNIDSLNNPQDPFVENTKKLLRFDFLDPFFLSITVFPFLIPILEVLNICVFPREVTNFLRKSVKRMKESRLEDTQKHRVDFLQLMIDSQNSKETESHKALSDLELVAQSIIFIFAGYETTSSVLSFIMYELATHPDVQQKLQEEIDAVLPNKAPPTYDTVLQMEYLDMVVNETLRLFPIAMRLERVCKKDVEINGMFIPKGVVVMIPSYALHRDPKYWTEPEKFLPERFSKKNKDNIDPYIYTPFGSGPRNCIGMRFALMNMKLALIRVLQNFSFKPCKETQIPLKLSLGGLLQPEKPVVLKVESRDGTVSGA

Cannabinoid receptor 2 = Cannabinoid receptor 2 (Homo sapiens, UniProt P34972); experiment: as §1
[18] = biological target: Alpha-1B adrenergic receptor (Homo sapiens, UniProt P35368); experiment: as §1
[19] = biological target: 5-hydroxytryptamine receptor 2A (Homo sapiens, UniProt P28223); experiment: as §1
5-hydroxytryptamine receptor 2A, sequence (P28223 whole entry): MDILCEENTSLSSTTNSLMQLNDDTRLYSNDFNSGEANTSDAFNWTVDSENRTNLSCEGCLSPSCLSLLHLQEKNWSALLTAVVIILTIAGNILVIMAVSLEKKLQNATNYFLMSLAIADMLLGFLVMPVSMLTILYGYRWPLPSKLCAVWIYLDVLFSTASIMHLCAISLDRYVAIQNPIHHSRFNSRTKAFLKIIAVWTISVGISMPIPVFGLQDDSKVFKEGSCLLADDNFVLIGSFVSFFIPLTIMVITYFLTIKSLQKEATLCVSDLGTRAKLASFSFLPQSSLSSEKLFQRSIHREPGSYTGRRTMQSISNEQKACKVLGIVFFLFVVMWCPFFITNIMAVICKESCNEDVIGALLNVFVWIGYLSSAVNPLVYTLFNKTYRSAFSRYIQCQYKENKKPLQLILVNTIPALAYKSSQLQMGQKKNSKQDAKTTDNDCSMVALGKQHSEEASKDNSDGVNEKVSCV

[20] = biological target: Tyrosine-protein kinase Lck (Homo sapiens, UniProt P06239); experiment: as §1
Tyrosine-protein kinase Lck, sequence (P06239 whole entry): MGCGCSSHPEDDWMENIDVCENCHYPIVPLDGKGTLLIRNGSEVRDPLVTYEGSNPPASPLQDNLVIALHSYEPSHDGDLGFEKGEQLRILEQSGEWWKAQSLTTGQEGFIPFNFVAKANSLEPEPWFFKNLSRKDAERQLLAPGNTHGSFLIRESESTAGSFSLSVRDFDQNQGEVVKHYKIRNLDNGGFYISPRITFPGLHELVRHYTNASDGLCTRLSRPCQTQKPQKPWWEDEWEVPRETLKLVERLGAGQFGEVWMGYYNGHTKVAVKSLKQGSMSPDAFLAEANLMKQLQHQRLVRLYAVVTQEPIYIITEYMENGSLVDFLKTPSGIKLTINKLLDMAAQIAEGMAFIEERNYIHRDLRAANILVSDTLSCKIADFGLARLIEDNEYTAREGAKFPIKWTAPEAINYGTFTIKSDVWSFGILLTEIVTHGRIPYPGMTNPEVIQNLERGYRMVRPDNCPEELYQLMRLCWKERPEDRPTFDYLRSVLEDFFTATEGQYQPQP

[21] = biological target: Nuclear receptor subfamily 1 group I member 2 (Homo sapiens, UniProt O75469); experiment: as §1
[22] = biological target: Amine oxidase [flavin-containing] B (Homo sapiens, UniProt P27338); experiment: as §1

Muscarinic acetylcholine receptor M1, sequence (P11229 whole entry): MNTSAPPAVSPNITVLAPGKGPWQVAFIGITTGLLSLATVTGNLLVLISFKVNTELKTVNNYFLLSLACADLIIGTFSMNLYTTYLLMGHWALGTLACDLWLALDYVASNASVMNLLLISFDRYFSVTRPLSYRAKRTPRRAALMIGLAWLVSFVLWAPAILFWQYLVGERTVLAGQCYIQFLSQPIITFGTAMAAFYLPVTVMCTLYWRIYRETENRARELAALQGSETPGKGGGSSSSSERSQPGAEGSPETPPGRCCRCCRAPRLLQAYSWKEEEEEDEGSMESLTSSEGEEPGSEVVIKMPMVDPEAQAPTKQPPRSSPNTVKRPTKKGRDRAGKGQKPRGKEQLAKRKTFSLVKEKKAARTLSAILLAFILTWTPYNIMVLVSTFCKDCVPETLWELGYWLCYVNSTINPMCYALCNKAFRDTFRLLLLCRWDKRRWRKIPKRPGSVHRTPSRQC

Q: How did the IC50 (Histamine H1 receptor) turn out when `COCc1nc2cnc3cc(-c4c(C)noc4C)c(OC[C@H]4CCNC4)cc3c2n1[C@H](C)c1ccccc1` [GSK778] was run?
A: > 25.1 µM

Q: What about the EC50 [1] of the same compound?
A: > 50.1 µM

Q: And the IC50 [1]?
A: > 50.1 µM

Q: What about the IC50 [2] of the same compound?
A: 39.8 µM

Q: And the IC50 [3]?
A: 50.1 µM

Q: And the IC50 [4]?
A: 39.8 µM

Q: And the IC50 (Substance-P receptor)?
A: > 25.1 µM

Q: What about the EC50 (Adenosine receptor A2a) of the same compound?
A: > 100 µM

Q: And the IC50 [5]?
A: > 50.1 µM

Q: What about the EC50 [6] of the same compound?
A: > 100 µM

Q: And the IC50 [6]?
A: > 100 µM

Q: And the IC50 [7]?
A: > 50.1 µM

Q: What about the EC50 [8] of the same compound?
A: > 100 µM

Q: And the IC50 [8]?
A: > 100 µM

Q: What about the IC50 [9] of the same compound?
A: > 100 µM

Q: What about the IC50 [10] of the same compound?
A: > 100 µM

Q: And the IC50 (Acetylcholinesterase)?
A: 63.1 µM

Q: What about the EC50 (D(2) dopamine receptor) of the same compound?
A: > 100 µM

Q: What about the IC50 (D(2) dopamine receptor) of the same compound?
A: 3.16 µM

Q: And the EC50 [11]?
A: > 100 µM

Q: And the IC50 (D(1A) dopamine receptor)?
A: > 100 µM

Q: What about the IC50 [12] of the same compound?
A: > 100 µM

Q: What about the IC50 [13] of the same compound?
A: 20 µM

Q: And the EC50 [14]?
A: > 100 µM

Q: What about the IC50 [14] of the same compound?
A: > 100 µM

Q: And the EC50 [15]?
A: > 50.1 µM

Q: And the IC50 [15]?
A: 10 µM

Q: What about the IC50 [16] of the same compound?
A: 39.8 µM

Q: What about the EC50 [17] of the same compound?
A: > 25.1 µM

Q: What about the IC50 [17] of the same compound?
A: > 25.1 µM

Q: And the IC50 (Vasopressin V1a receptor)?
A: > 50.1 µM

Q: What about the IC50 (Cytochrome P450 3A4) of the same compound?
A: 6.31 µM

Q: What about the EC50 (Cannabinoid receptor 2) of the same compound?
A: > 100 µM

Q: And the IC50 [18]?
A: > 25.1 µM

Q: And the EC50 [19]?
A: > 25.1 µM

Q: And the IC50 [19]?
A: > 25.1 µM

Q: What about the IC50 [20] of the same compound?
A: > 31.6 µM

Q: And the EC50 [21]?
A: > 50.1 µM

Q: And the IC50 [22]?
A: 79.4 µM
